Data set [1] concerns mouse bone marrow derived macrophages (BMDMs). The data set can be described thus: LPS-induced IL-6 and TNF-α in BMDM. It counts as cell-based. The conditions noted are these: for LPS-induced IL-6 production in AhR^−/− macrophages: AhR^−/− BMDM, up to 30 NM; for LPS induced IL-6 and TNF-α: 0.1-50 μM; for IL-6 in Nrf2^−/− (fold reduction; TNBS model and LPS-induced BMDM): Nrf2^−/− vs WT. The method, then:
Measurements of IL-6 and TNF-α in BMDM: BMDM were plated in 96 (10,000 cells/well) and 12 wells (0.1×10^6 cells/well) plate for ELISA and RNA isolation. To evaluate the anti-inflammatory properties, BMDMs were stimulated with E. coli-derived lipopolysaccharides (LPS; 055:B5; Sigma) at 50 ng/mL concentration for six hours alone or in combination with UroA or UAS03 at indicated concentrations (0.01, 0.1, 1, 10, 25, 50 μM) in quadruplicates. For cytokine production via ELISA, the supernatant was collected and centrifuged at 10,000×g for 10 min at 4° C. to pellet down any cell and cytokines were quantified using IL-6 and TNF-α specific ELISA kit (Biolegend) following manufacturer's instruction.
Screening for anti-inflammatory activities: Mouse bone marrow derived macrophages (BMDM) were plated in 96 wells plate for ELISA. To evaluate the anti-inflammatory properties, BMDMs were stimulated with E. coli-derived lipopolysaccharides (LPS; 055:B5; Sigma) at 50 ng/mL concentration for six hours alone or in combination with compounds at indicated concentrations in quadruplicates. For cytokine production via ELISA, the supernatant was collected and centrifuged at 12,000 rpm for 10 min at 4° C. to pellet down any cell and cytokines were quantified using IL-6 and TNF-α specific ELISA kit (Biolegend) following manufacturer's instruction. LPS induced IL-6 or TNF-α considered as 100%.

Another data set deals with Cyp1A1. The data set can be described thus: Cyp1A1 expression and enzyme activity in vitro (P450-Glo, EROD). It counts as cell-based, human. The conditions noted are these: for Cyp1A1 enzyme activity in colon epithelial cells: HT29, 24 h, P450-Glo and EROD. The method, then:
Measurment of Cyp1A1 enzyme activities in vitro. EROD assay: HT-29 cells (15,000 cells/well) treated with vehicle, UroA and UAS03 (24 hrs), were rinsed with HBSS buffer, and then fresh HBSS buffer was added along with 5 μM of 7-ethoxyresorufin. Cells were further incubated at 37° C. for 1 h. After the incubation time, fluorescence (Exc. 530 nm, Em. 580 nm) was measured and product (resorufin) formed was calculated from calibration standard and normalized with protein concentration.
P450-Glo Cyp1A1 luminiscence assay: HT29 cells (25,000 cells/well) were plated in 48 well plate. Cell were then treated with UroA (0.1, 1, 10, 25 and 50 μM) or UAS03 (0.1, 1, 10, 25 and 50 μM) or FICZ (0.1, 1, 10, 25 and 50 nM) for 24 hrs. After treatment, cells were washed to remove any residual drugs, and fresh medium containing Cyp1A1 substrate (as per protocol provided with kit Cat. #V8751; Promega) for 3 hr. After incubation, 25 μl of culture medium was removed from each well and transferred to a 96-well white opaque plate and 25 μl of luciferin detection reagent was added to initiate the luminescence reaction and plate was incubated at room temperature for 20 min. After incubation, luminescence was recorded in luminometer. The data reported as fold change over vehicle treatment.

Data set [2] concerns C57BL/6 mice. The data set can be described thus: 28-day repeated dose toxicity study. The conditions noted are these: oral 20 or 40 mg/kg daily, 28 days. The method, then:
28-day repeated dose toxicity study: To evaluate toxicity of UroA and UAS03, we performed 28-days repeated dose toxicity study. Mice were fed (oral gavage) with UroA (20 and 40 mg/kg/day) and UAS03 (20 and 40 mg/kg/day) daily for 28 days. Body weight, food and water intake were assessed weekly. After 28 days, mice were sacrificed and gross examination of all major organs were performed. Blood was collected to obtain serum. Serum alanine aminotransferase (ALT) and asparate aminotransferase (AST) were analyzed using ALT/AST kit (BioVision) as per instructional manual.

The next data set has as its system C57B6/J mice. The data set can be described thus: LPS-induced sepsis survival. It counts as in vivo, mouse. The conditions noted are these: LPS 20 mg/kg i.p.; for survival of septic mice: compound 20 mg/kg i.p. The method, then: UAS03 (Ether) attenuates septic mortality. C57B6/J mice were injected with lipopolysaccharide intra-peritoneally at a septic dose of 20 mg/kg. The treated animals received either Urolithin-A or UAS03 (Ether) at 20 mg/kg intraperitoneal injection.
Preventive and therapeutic effect of UAS03 (Ether) in septic animals. Animals were injected with LPS intraperitoneally at 20 mg/kg dose to induce sepsis. For Ether+LPS group animals were given UAS03 (20 mg/kg; intraperitoneal) 1 hour prior LPS injection. LPS+Ether group received UAS03 1 hour post LPS injection.

In data set [3] the test system is C57BL/6 mice. The data set can be described thus: In vivo Miles assay (VEGF). The conditions noted are these: 20 mg/kg oral gavage; VEGF 2.5 ng/mouse. The method, then:
Acute intoxication of alcohol can induce microvasculature leakage as well as direct exposure to endothelium leads to disruption of endothelial integrity. […] In addition, increased endothelial permeability enhances the extravasation of immune cells into liver leading to increased inflammation. To examine the effect of UroA/UAS03 on endothelial cell permeability, we utilized in vivo Evans Blue permeability assay. Briefly, C57BL/6 mice (n=4/group) were given LPS (100 μg) i.p. followed by treatment with UAS03 or UroA (20 mg/kg) after 1 h and 18 h. Evans blue (i.v.) was given to mice (24 h post LPS treatment) and 30 min later mice were euthanized and the Evans Blue from lung and liver tissues was extracted using formamide. The levels of Evans Blue was determined by OD at 620 nm. […] To evaluate direct impact of UroA or UAS03 on endothelial barrier function, we used in vivo Miles assay to test blood vessel permeability. We used vascular endothelial growth factor (VEGF) as vasodilator. In this assay, C57BL/6 mice (n=3 per group) were given vehicle or UroA or UAS03 (20 mg/kg; oral gavage). After 3 h, Evans blue (100 μL of 1% solution) was administered i.v. followed by intra-dermal administration of VEGF (2.5 ng/mouse) or PBS (control). […]

Molecules are shown by their SMILES.

`Oc1ccc2c(c1)COc1cc(O)ccc1-2` [UAS03, 6H-benzo[c]chromene-3,8-diol]: in data set [1], the “LPS-induced IL-6 production in AhR^−/− macrophages” value is given as “did not block”; the “IL-6 in Nrf2^−/− (fold reduction; TNBS model and LPS-induced BMDM)” value is recorded as “reduced IL-6 in Nrf2^−/− similar to WT”. Further, in data set [1] (LPS 50 ng/mL, six hours, compared UroA), the “anti-inflammatory activities (LPS-induced IL-6 and TNF-α), analogue screening” value is listed as “effective anti-inflammatory compounds”. In data set [1] (LPS 50 ng/ml, 6 h), the “concentrations showing anti-inflammatory activities” value was “nano molar concentrations”; the “LPS induced IL-6 and TNF-α” value is recorded as “decreased”. For the same compound, the “Cyp1A1 enzyme activity in colon epithelial cells” value with Cyp1A1 is “induced Cyp1A1 activity”. Moreover, in the data set on C57BL/6 mice [2], the “serum AST and ALT levels at day 28” value was “no significant differences”; the “signs of toxicity (body weights, CBC counts, serum ALT and AST)” value was “did not exhibit any signs of toxicity”. Further, in the data set on C57B6/J mice (20 mg/kg i.p.), the “survival, pretreated (1 hour prior LPS)” value came out at 70% and the “survival, therapeutic group (1 hour post LPS)” value is recorded as 100%. The “survival of septic mice” value in the data set with C57B6/J mice is given as 90%. In the data set with C57BL/6 mice [3], the “endothelial barrier leakage induced by VEGF” value is on record as “protected from endothelial barrier leakage”.

Regarding `O=c1oc2cc(O)ccc2c2ccc(O)cc12` [UroA, 3,8-dihydroxy-6H-dibenzo[b,d]pyran-6-one], in data set [1], the “LPS-induced IL-6 production in AhR^−/− macrophages” value is listed as “did not block”; the “IL-6 in Nrf2^−/− (fold reduction; TNBS model and LPS-induced BMDM)” value is reported as “reduced IL-6 in Nrf2^−/− similar to WT”. Besides, the “LPS induced IL-6 and TNF-α” value in data set [1] (LPS 50 ng/ml, 6 h) was “decreased”. Moreover, the “Cyp1A1 expression (RNA-Seq and real time PCR)” value in the data set with Cyp1A1 (HT29, 50 μM, 24 h) is “upregulated”. Also, the “Cyp1A1 enzyme activity in colon epithelial cells” value in the data set on Cyp1A1 was “induced Cyp1A1 activity”. In addition, in the data set with C57BL/6 mice [2], the “serum AST and ALT levels at day 28” value is reported as “no significant differences”. Moreover, in the data set on C57B6/J mice, the “survival of septic mice” value is 20%. For the same compound, the “endothelial barrier leakage induced by VEGF” value in the data set with C57BL/6 mice [3] was “protected from endothelial barrier leakage”.

The values are drawn from patent publication US12377069B2, “Compounds, compositions, methods of using, and methods for preparing compounds” (UNIVERSITY OF LOUISVILLE RESEARCH FOUNDATION, INC., priority 2018, dated 2025).
